Measured values published in patent publication US12729181B2, “Compounds, compositions, and methods for modulating calcium ion homeostasis” (The Regents of the University of California, priority 2020, dated 2026).

How the values were obtained:
[1] = Metabolic stability in vivo
tre^tc318 mutant embryos = assay: Compound rescue screen: restoration of persistent heartbeat in tremblor embryos; format: in vivo, Zebrafish; conditions: for responders at 15 µM: read-out: Rescue at 15 uM (%); for Rescue at 15 uM (%): 15 uM from 30 hpf
Protocol: Zebrafish of the mutant line tremblor (tre^tc318) were maintained and bred as described previously in the literature. C. f. Langenbacher A D, et al., PNAS, 2005, 102(49), 17699-17704.
Exemplary compounds were screened for their ability to partially or completely restore persistent heartbeat in tre^tc318 embryos. 10 tre^tc318 mutant embryos were placed in each well of a 24-well plate and raised in the presence of individual compounds at various concentrations (5, 10, 15 and 20 μM) from 30 hpf. Cardiac function was analyzed by visual inspection at 2 dpf. The hearts of tre^tc318 embryos manifest a chaotic movement resembling cardiac fibrillation with sporadic contractions. Compounds that elicited persistent coordinated cardiac contractions were validated by rescreening at least once on another 10 tre^tc318 mutant embryos.

VDAC2 = assay: Binding of efsevin to VDAC2
cardiomyocytes = assay: Ca sparks, Ca waves and contractions in cardiomyocytes; format: cell-based
[2] = cardiac function by visual inspection at 2 dpf, 10 embryos per well

Compound | responders at 15 µM (tre^tc318 mutant embryos; Danio rerio, 48 h) [%] | other results
CCOC(=O)C1=CCN(S(=O)(=O)c2ccc(C)cc2)C1c1ccccc1 (centres unmarked) [FS001, efsevin, reference compound] | 80 | metabolic stability in vivo [1]: poor metabolic stability in vivo; responders at 10 µM (tre^tc318 mutant embryos; Danio rerio, 48 h, read-out: Rescue at 10 uM (%)): 58%; responders at 20 µM (tre^tc318 mutant embryos; Danio rerio, 48 h, read-out: Rescue at 20 uM (%)): 45%; activity to restore coordinated contractions in tremblor (tre^tc318 mutant embryos; chemical suppressor screen on zebrafish tremblor embryos): potent activity to restore coordinated contractions in tremblor; binding to VDAC2 (VDAC2): bind to VDAC2; effect on Ca overload-induced Ca waves and contractions (cardiomyocytes): inhibits Ca+overload-induced erratic Ca^+ waves and irregular contractions
CCOC(=O)C1=CCN(S(=O)(=O)c2ccc(Br)cc2)C1c1ccccc1 (centres unmarked) [FS104] |  | Rescue at 10 uM (%) (tre^tc318 mutant embryos; 10 uM from 30 hpf, cardiac function by visual inspection at 2 dpf, 10 embryos per well): 60%; Rescue at 15 uM (%) (tre^tc318 mutant embryos; [2]): 50%; Rescue at 20 uM (%) (tre^tc318 mutant embryos; 20 uM from 30 hpf, cardiac function by visual inspection at 2 dpf, 10 embryos per well): 60%
CCOC(=O)C1=CCN(S(=O)(=O)c2ccc(F)cc2)C1c1cccc(Cl)c1 (centres unmarked) [FS114] | 22 | 
CCOC(=O)C1=CCN(S(=O)(=O)c2ccc(F)cc2)C1c1cccc(Br)c1 (centres unmarked) [FS115] | 30 | 
CCOC(=O)C1=CCN(S(=O)(=O)c2ccc(F)cc2)C1c1cccc(F)c1 (centres unmarked) [FS116] | 11 | 
CCOC(=O)C1=CCN(S(=O)(=O)c2cccc(Cl)c2)C1c1ccc(Cl)c(Cl)c1 (centres unmarked) [FS118] | 10 | 
CCOC(=O)C1=CCN(S(=O)(=O)c2cccc(Cl)c2)C1c1cccc(Br)c1 (centres unmarked) [FS120] | 56 | 
CCOC(=O)C1=CCN(S(=O)(=O)c2cccc(Cl)c2)C1c1cccc(F)c1 (centres unmarked) [FS121] | 56 | 
CCOC(=O)C1=CCN(S(=O)(=O)c2cccc(Cl)c2)C1c1cccc(C)c1 (centres unmarked) [FS122] | 33 | 
CCOC(=O)C1=CCN(S(=O)(=O)c2ccc(F)cc2)C1c1ccc(Cl)cc1 (centres unmarked) [FS123] | 70 | 
CCOC(=O)C1=CCN(S(=O)(=O)c2ccc(F)cc2)C1c1ccc(Br)cc1 (centres unmarked) [FS124] | 90 | 
CCOC(=O)C1=CCN(S(=O)(=O)c2cccc(Cl)c2)C1c1ccccc1 (centres unmarked) [FS132] | 88 | 
CCOC(=O)C1=CCN(S(=O)(=O)c2cccc(F)c2)C1c1ccc(Cl)cc1 (centres unmarked) [FS133] | 78 | 
CCOC(=O)C1=CCN(S(=O)(=O)c2cccc(F)c2)C1c1ccc(Br)cc1 (centres unmarked) [FS134] | 60 | 
CCOC(=O)C1=CCN(S(=O)(=O)c2cccc(F)c2)C1c1ccc(F)cc1 (centres unmarked) [FS135] | 50 | 
CCOC(=O)C1=CCN(S(=O)(=O)c2cccc(Br)c2)C1c1ccc(Cl)cc1 (centres unmarked) [FS136] | 29 | 
CCOC(=O)C1=CCN(S(=O)(=O)c2cccc(Br)c2)C1c1ccc(Br)cc1 (centres unmarked) [FS137] | 0 | 
CCOC(=O)C1=CCN(S(=O)(=O)c2cccc(Br)c2)C1c1ccc(F)cc1 (centres unmarked) [FS138] | 50 | 
CCOC(=O)C1=CCN(S(C)(=O)=O)C1c1ccc(Cl)cc1 (centres unmarked) [FS139] |  | Rescue at 15 uM (%) (tre^tc318 mutant embryos; [2]): 0%
CCOC(=O)C1=CCN(S(C)(=O)=O)C1c1ccc(C)cc1 (centres unmarked) [FS140] | 0 | 
CCOC(=O)C1=CCN(S(=O)(=O)c2ccc([N+](=O)[O-])cc2)C1c1ccc(C)cc1 (centres unmarked) [FS141] | 0 | 
CCOC(=O)C1=CCN(S(=O)(=O)c2ccc([N+](=O)[O-])cc2)C1c1ccccc1 (centres unmarked) [FS142] |  | Rescue at 15 uM (%) (tre^tc318 mutant embryos; [2]): 56%
CCOC(=O)C1=CCN(S(=O)(=O)c2ccc(C)cc2)C1c1cccs1 (centres unmarked) [FS147] | 60 | 
CCOC(=O)C1=CCN(S(=O)(=O)c2ccccc2)C1c1ccccc1 (centres unmarked) [FS148] | 56 | 
